Experimental data taken from patent US9867841B2, “Compounds, compositions and methods using E-selectin antagonists for mobilization of hematopoietic cells” (GLYCOMIMETICS, INC., priority 2012, dated 2018).

Test system: WBC, lymphocytes, monocytes, eosinophils, and neutrophils in circulation
Assay: Mobilization of blood cells in CD-1 mice (Example 5, FIG. 5)
Format: in vivo
Conditions: AMD3100 dosed at 3 mg/kg
Method: Blood was collected from the animals at 2, 3, and 6 hours post dosing and analyzed for levels of total white blood cells (WBC) (Figure SA), neutrophils (FIG. 5B), eosinophils (FIG. 5C), lymphocytes (FIG. 5D), monocytes (FIG. 5E).
Blood was collected from the animals at 2, 3, and 6 hours post dosing and analyzed for levels of blood cells (WBC, lymphocytes, monocytes, eosinophils, and neutrophils) by standard CBC differential analyses methods.

## c1cc(CN2CCCNCCNCCCNCC2)ccc1CN1CCCNCCNCCCNCC1 [AMD3100]
  level and timing of WBC mobilization compared with Compound 25: generally equivalent to that elicited by Compound 25
